Source: patent publication US20060270648A1, “USE OF POLYAMINES WITH ANTIBIOTICS” (priority 2005, published 2006)
In brackets after ≈: the same amount, converted by molar mass. Read-outs that look alike come from different tables or passages of the source.

Experiments:
[1] = system: methicillin resistant Staphylococcus aureus (MRSA) Mu50; assay: MIC of antibiotics against MRSA Mu50 with or without spermine; format: cell-based; settings: for MIC: Staphylococcus aureus, MRSA, no spermine, read-out: MICs in the presence or absence of spermine (1 mM): No add; for MICs in the presence or absence of spermine (1 mM): Spermine: with 1 mM spermine
E. coli K10 = assay: MIC of carbenicillin against E. coli K10 with divalent ions or salt and polyamines; format: cell-based; settings: Escherichia coli, read-out: MICs to carbenicillin
Procedure: (§1) Various strains of bacteria, including P. aeruginosa and e. coli were grown on Luria-Bertani (LB) agar/broth or Mueller-Hinton (MH) agar/broth. […] The antibiotics, chemicals, and/or polyamines were dissolved in double distilled water or solvent and thereafter filtered through a 0.4 μm disposable membranes.
(§2) The MIC values of the strains associated with various combinations of polyamines and antibiotics were determined using standard two-fold agar dilutions techniques and broth dilutions techniques in Mueller-Hinton broth. The lowest concentration of drug with no visible turbidity was deemed the MIC.

[2] = system: MRSA Staphylococcus aureus 700699; assay: MIC of antibiotics against MRSA Staphylococcus aureus 700699 with or without spermine; format: cell-based; settings: for MIC: Staphylococcus aureus, MRSA, no spermine, read-out: MICs in the absence or presence of spermine: No add; for MICs in the absence or presence of spermine: Spermine (1 mM): with 1 mM spermine
[3] = system: E. coli (K10, K12, C921-61); assay: MIC of antibiotics against E. coli strains with or without polyamines (FIG. 3); format: cell-based; settings: E. coli K10, K12, C921-61 and S. typhimurium LT2
Procedure: as §1, §2

P. aeruginosa PAO1 [4] = assay: Time killing assay of P. aeruginosa PAO1 in human serum (FIG. 4); format: cell-based
Procedure: Time-killing assays were performed for various bacteria samples. Briefly, the tested bacteria were grown to mid-log phase in Mueller-Hinton broth media. […] As a control group, cells were diluted in a sodium phosphate without any additional compounds. Aliquots were withdrawn at specific time intervals and spread on LB agar plates and incubated overnight at 37 C. The percent of colonies that survived were determined relative to the control.

[5] = system: Salmonella typhimurium LT2; settings: for MICs in the indicated concentrations (mM) of polyamines: Spermine (1 mM): with 1 mM spermine; for MICs in the indicated concentrations (mM) of polyamines: Spermidine (20 mM): with 20 mM spermidine;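 for all read-outs here: Two-fold agar or broth dilution in Mueller-Hinton broth, MIC taken as lowest drug concentration without visible turbidity, tested alone or combined with polyamines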
Procedure: as §1, §2

[6] = system: Salmonella typhimurium LT2; assay: microbe, parasite or virus in culture; settings: Salmonella enterica, read-out: MICs in the indicated concentrations (mM) of polyamines: No add;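 note: Two-fold agar or broth dilution in Mueller-Hinton broth, MIC taken as lowest drug concentration without visible turbidity, tested alone or combined with polyamines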
Procedure: as §1, §2

[7] = system: outer membrane permeability; assay: Outer membrane permeabilization assay (β-lactamase activity in whole cells or released into suspension); format: cell-based; settings: for β-lactamase activity detected: 20 mM (FIG. 7)
Procedure: The β-lactamase activity was determined by a spectrophotometric method using nitrocefin as a substrate. After the β-lactamase was extracted from the cells, the β-lactamase activity was monitored by absorbance changes in wavelength at 486 nm with a molar extinction coefficient of 20500. The extent of hydrolysis was a reflection of the amount of enzyme remaining uninhibited.
An outer membrane permeabilization assay was performed by examining the release of the chromosomally encoded β-lactamase. Briefly, stationary phase cells were diluted 1:59 into 20 mL pre-warmed MMP broth and cultured in an incubator at 350 rpm and at 37 C for 5 hours. After carbenicillin (200 μg/mL) was added to induce β-lactamase activity, the culture was incubated for additional 5 hours. The cells were harvested by centrifugation at 5,000×g for 10 minutes and washed once with 0.05M sodium phosphate buffer at pH 7.2. The cell pellet was resuspended in 5 mL of the same buffer and divided into 1 mL aliquots. […] […] The reaction mixtures were incubated at room temperature for 5 minutes and immediately centrifuged at full speed (15000×g) for 20 minutes and the supernatant was used for β-lactamase sources. β-lactamase activity was determined as described above using 300 μL of the supernatant.

P. aeruginosa PAO1 [8] = assay: MIC of antibiotics against P. aeruginosa PAO1 with or without polyamines; format: cell-based; settings: for MIC values in the presence versus the absence of polyamines: hydrophobic antibiotics (FIG. 1)
Procedure: as §1, §2

CC1(C)S[C@@H]2[C@H](NC(=O)C(C(=O)O)c3ccccc3)C(=O)N2[C@H]1C(=O)O (stereo partly shown) [Carbenicillin]
MIC [1]: 256 µg/mL | MICs in the presence or absence of spermine (1 mM): Spermine [1]: 4 µg/mL | MIC (E. coli K10; K10, MHB + 1 mM CaCl2, Spermidine (10 mM)): 2 µg/mL | MIC (E. coli K10; K10, MHB + 1 mM CaCl2, Spermine (1 mM)): 1 µg/mL | MIC (E. coli K10; K10, MHB + 1 mM CaCl2, no polyamine): 16 µg/mL | MIC (E. coli K10; K10, MHB + 1 mM MgSO4, Spermidine (10 mM)): 4 µg/mL | MIC (E. coli K10; K10, MHB + 1 mM MgSO4, Spermine (1 mM)): 1 µg/mL | MIC (E. coli K10; K10, MHB + 1 mM MgSO4, no polyamine): 16 µg/mL | MIC (E. coli K10; K10, MHB + 3 mM CaCl2, Spermidine (10 mM)): 4 µg/mL | MIC (E. coli K10; K10, MHB + 3 mM CaCl2, Spermine (1 mM)): 4 µg/mL | MIC (E. coli K10; K10, MHB + 3 mM CaCl2, no polyamine): 16 µg/mL | MIC (E. coli K10; K10, MHB + 3 mM MgSO4, Spermidine (10 mM)): 4 µg/mL | MIC (E. coli K10; K10, MHB + 3 mM MgSO4, Spermine (1 mM)): 4 µg/mL | MIC (E. coli K10; K10, MHB + 3 mM MgSO4, no polyamine): 16 µg/mL | MIC (E. coli K10; K10, MHB + 100 mM NaCl, Spermidine (10 mM)): 4 µg/mL | MIC (E. coli K10; K10, MHB + 100 mM NaCl, Spermine (1 mM)): 4 µg/mL | MIC (E. coli K10; K10, MHB + 100 mM NaCl, no polyamine): 16 µg/mL | MIC (E. coli K10; K10, MHB + 150 mM NaCl, Spermidine (10 mM)): 4 µg/mL | MIC (E. coli K10; K10, MHB + 150 mM NaCl, Spermine (1 mM)): 4 µg/mL | MIC (E. coli K10; K10, MHB + 150 mM NaCl, no polyamine): 16 µg/mL | MIC (E. coli K10; K10, MHB medium, no supplement, Spermidine (10 mM)): 4 µg/mL | MIC (E. coli K10; K10, MHB medium, no supplement, Spermine (1 mM)): 1 µg/mL | MIC (E. coli K10; K10, MHB medium, no supplement, no polyamine): 16 µg/mL | MIC [2]: 256 µg/mL | MICs in the absence or presence of spermine: Spermine (1 mM) [2]: 4 µg/mL | susceptibility with the combination of polyamines and antibiotics [3]: improved susceptibility | growth of P. aeruginosa PAO1 in human serum (P. aeruginosa PAO1 [4]; 16 μg/mL carbenicillin alone): initial inhibition, this inhibition was followed by a full recovery of growth | percent of the inoculants killed in human serum (P. aeruginosa PAO1 [4]; 2 mM spermine added along with 16 μg/mL carbenicillin, 24 hours): more than 99% | MICs in the indicated concentrations (mM) of polyamines: Spermine (1 mM) [5]: 1 µg/mL | MICs in the indicated concentrations (mM) of polyamines: Spermidine (20 mM) [5]: 2 µg/mL | MIC [6]: 8 µg/mL (≈ 21.1 µM)

O=C(N[C@H](CO)[C@H](O)c1ccc([N+](=O)[O-])cc1)C(Cl)Cl [Chloramphenicol]
MIC [1]: 8 µg/mL | MICs in the presence or absence of spermine (1 mM): Spermine [1]: 2 µg/mL | MIC [2]: 8 µg/mL | MICs in the absence or presence of spermine: Spermine (1 mM) [2]: 2 µg/mL | susceptibility with the combination of polyamines and antibiotics [3]: improved susceptibility | MICs in the indicated concentrations (mM) of polyamines: Spermine (1 mM) [5]: 1 µg/mL | MICs in the indicated concentrations (mM) of polyamines: Spermidine (20 mM) [5]: 1 µg/mL | MIC [6]: 2 µg/mL (≈ 6.19 µM)

O=C(O)CN(CCN(CC(=O)O)CC(=O)O)CC(=O)O [EDTA]
release of periplasmic β-lactamase into the suspension solution ([7]; 0.5 mM (FIG. 6)): can be detected | release of periplasmic β-lactamase into the suspension solution ([7]; 1 mM (FIG. 6)): increased

CC[C@H]1OC(=O)[C@H](C)[C@@H](O[C@H]2C[C@@](C)(OC)[C@@H](O)[C@H](C)O2)[C@H](C)[C@@H](O[C@@H]2O[C@H](C)C[C@H](N(C)C)[C@H]2O)[C@](C)(O)C[C@@H](C)C(=O)[C@H](C)[C@@H](O)[C@]1(C)O [Erythromycin]
MIC values in the presence versus the absence of polyamines (P. aeruginosa PAO1 [8]): identical | susceptibility with the combination of polyamines and antibiotics [3]: improved susceptibility | MICs in the indicated concentrations (mM) of polyamines: Spermine (1 mM) [5]: 32 µg/mL | MICs in the indicated concentrations (mM) of polyamines: Spermidine (20 mM) [5]: 64 µg/mL | MIC [6]: 64 µg/mL (≈ 87.2 µM)

CC(=O)O[C@H]1C[C@@]2(C)[C@@H](C[C@@H](O)[C@H]3[C@@]4(C)CC[C@@H](O)[C@@H](C)[C@@H]4CC[C@@]32C)/C1=C(\CCC=C(C)C)C(=O)O [Fusidic acid]
MIC values in the presence versus the absence of polyamines (P. aeruginosa PAO1 [8]): identical | susceptibility with the combination of polyamines and antibiotics [3]: improved susceptibility | MICs in the indicated concentrations (mM) of polyamines: Spermine (1 mM) [5]: 1024 µg/mL | MICs in the indicated concentrations (mM) of polyamines: Spermidine (20 mM) [5]: 1024 µg/mL | MIC [6]: > 1020 µg/mL

CO[C@@H]1[C@@H](OC(N)=O)[C@@H](O)[C@H](Oc2ccc3c(O)c(NC(=O)c4ccc(O)c(CC=C(C)C)c4)c(=O)oc3c2C)OC1(C)C [Novobiocin]
MIC values in the presence versus the absence of polyamines (P. aeruginosa PAO1 [8]): identical | susceptibility with the combination of polyamines and antibiotics [3]: improved susceptibility | MICs in the indicated concentrations (mM) of polyamines: Spermine (1 mM) [5]: 1024 µg/mL | MICs in the indicated concentrations (mM) of polyamines: Spermidine (20 mM) [5]: 256 µg/mL | MIC [6]: > 1020 µg/mL

Cc1onc(-c2ccccc2)c1C(=O)N[C@@H]1C(=O)N2[C@@H]1SC(C)(C)[C@@H]2C(=O)O [Oxacillin]
MIC [1]: ≥ 256 µg/mL | decrease of MIC with exogenous spermine ([1]; spermine 1 mM and less): over 100 fold | MICs in the presence or absence of spermine (1 mM): Spermine [1]: 1 µg/mL | MIC [2]: ≥ 256 µg/mL | MICs in the absence or presence of spermine: Spermine (1 mM) [2]: 2 µg/mL | susceptibility with the combination of polyamines and antibiotics [3]: improved susceptibility | MICs in the indicated concentrations (mM) of polyamines: Spermidine (20 mM) [5]: 64 µg/mL | MIC [6]: 256 µg/mL (≈ 638 µM)

CCN1CCN(C(=O)N[C@@H](C(=O)N[C@@H]2C(=O)N3[C@@H]2SC(C)(C)[C@@H]3C(=O)O)c2ccccc2)C(=O)C1=O [Piperacillin]
MIC [1]: 32 µg/mL | MICs in the presence or absence of spermine (1 mM): Spermine [1]: 2 µg/mL | MIC [2]: 32 µg/mL | MICs in the absence or presence of spermine: Spermine (1 mM) [2]: 2 µg/mL | susceptibility with the combination of polyamines and antibiotics [3]: improved susceptibility | MICs in the indicated concentrations (mM) of polyamines: Spermine (1 mM) [5]: 0.5 µg/mL | MICs in the indicated concentrations (mM) of polyamines: Spermidine (20 mM) [5]: 0.25 µg/mL | MIC [6]: 4 µg/mL (≈ 7.73 µM)

NCCCCNCCCN [Spermidine]
MICs to carbenicillin in the indicated concentration of polyamines (P. aeruginosa PAO1 [8]; 0 mM polyamine): 64 µg/mL | MICs to carbenicillin in the indicated concentration of polyamines (P. aeruginosa PAO1 [8]; 0.5 mM polyamine): 32 µg/mL | MICs to carbenicillin in the indicated concentration of polyamines (P. aeruginosa PAO1 [8]; 1 mM polyamine): 16 µg/mL | MICs to carbenicillin in the indicated concentration of polyamines (P. aeruginosa PAO1 [8]; 5 mM polyamine): 16 µg/mL | MICs to carbenicillin in the indicated concentration of polyamines (P. aeruginosa PAO1 [8]; 10 mM polyamine): 8 µg/mL | MICs to carbenicillin in the indicated concentration of polyamines (P. aeruginosa PAO1 [8]; 20 mM polyamine): 4 µg/mL | β-lactamase activity detected [7]: only a very low level

NCCCNCCCCNCCCN [Spermine]
MICs to carbenicillin in the indicated concentration of polyamines (P. aeruginosa PAO1 [8]; 0 mM polyamine): 64 µg/mL | MICs to carbenicillin in the indicated concentration of polyamines (P. aeruginosa PAO1 [8]; 0.5 mM polyamine): 16 µg/mL | MICs to carbenicillin in the indicated concentration of polyamines (P. aeruginosa PAO1 [8]; 1 mM polyamine): 4 µg/mL | MICs to carbenicillin in the indicated concentration of polyamines (P. aeruginosa PAO1 [8]; 5 mM polyamine): 4 µg/mL | MICs to carbenicillin in the indicated concentration of polyamines (P. aeruginosa PAO1 [8]; 10 mM polyamine): 4 µg/mL | MICs to carbenicillin in the indicated concentration of polyamines (P. aeruginosa PAO1 [8]; 20 mM polyamine): 4 µg/mL | growth of P. aeruginosa PAO1 in human serum (P. aeruginosa PAO1 [4]; presence or absence of 2 mM spermine): not affected | β-lactamase activity detected [7]: only a very low level

CC1(C)S[C@@H]2[C@H](NC(=O)[C@H](C(=O)O)c3ccsc3)C(=O)N2[C@H]1C(=O)O [Ticarcillin]
MIC [1]: 256 µg/mL | MICs in the presence or absence of spermine (1 mM): Spermine [1]: 4 µg/mL | MIC [2]: 256 µg/mL | MICs in the absence or presence of spermine: Spermine (1 mM) [2]: 4 µg/mL | susceptibility with the combination of polyamines and antibiotics [3]: improved susceptibility | MICs in the indicated concentrations (mM) of polyamines: Spermine (1 mM) [5]: 0.5 µg/mL | MICs in the indicated concentrations (mM) of polyamines: Spermidine (20 mM) [5]: 1 µg/mL | MIC [6]: 4 µg/mL (≈ 10.4 µM)

Polymyxin B
MICs in the presence or absence of spermine (1 mM): Spermine [1]: 64 µg/mL | β-lactamase activities detected in the whole cells ([7]; 100 μg/mL applied to the cell suspension (FIG. 5)): significant activities
